Holding throughout (format): cell-based, human
Data set [1] relates to TLOs. The experiment in a line: Distal differentiation of TLOs (removal of CHIR and KGF, TGF-b blockade with SB). The conditions noted are these: removing CHIR and KGF and blocking TGF-b signaling using SB (DCI+SB). How it is done: We next used empirical approaches to differentiate the cells into more mature proximal of distal lineages.
(§1) Total RNA was extracted according to manufacturer's instructions using the Direct-zol™ RNA Microprep (Zymo Research, Irvine, CA), and 500 ng of total RNA was reverse transcribed using the qScript™ XLT cDNA SuperMix (Quantabio, Beverly, MA). Technical triplicates of […] reaction (for use in Applied Biosystems QuantStudio7 384-well System, Waltham, MA) were prepared with 3 μl of diluted cDNA and run for 40 cycles. Relative gene expression was calculated based on the average cycle (Ct) value, normalized to GAPDH as the internal control and reported as fold change (2(−ddCT)).

For data set [2], the system named is HPS1−/− TLOs. Briefly: ER stress induction by tunicamycin, HPS1-/- TLOs. How it is done:
(§2) We challenged for 5 hours with tunicamycin, a protein glycosylation inhibitor that prevents protein maturation and causes ER stress.^65 and measured ER stress components after 5 hrs, upon removal tunicamycin, and after 1 week (FIG. 7b). […] Of particular interest is ATF4, as ATF4 is an effector protein implicated not only in the UPR^ER via PERK phosphorylation but also in the integrated stress response (ISR)^66.
as §1

For the next data set, the system named is ABCA3−/− TLOs. Briefly: ER stress induction by tunicamycin, ABCA3-/- TLOs. The settings on record: one week after removal of tunicamycin; compared with HPS1−/− TLOs. As for the experimental part: as §2, §1
Data set [3] relates to HPS1−/− TLOs. The conditions noted are these: one week after removal of tunicamycin. How it is done: as §2
Another data set deals with WT (R2) TLO. Briefly: ER stress induction by tunicamycin, WT TLOs. The conditions noted are these: one week after removal of tunicamycin (5 hour challenge). As for the experimental part: as §2, §1
Data set [4] relates to TLOs. Briefly: CHIR withdrawal from TLOs cultured in CK-DCI. The settings on record: 1 to 5 days after withdrawal of CHIR; Ki67, cCASP3, AT2 marker RT-PCR. How it is done:
As removing WNT signaling has been reported to induce AT2 maturation in alveolospheres,^26,27 we withdrew CHIR.
Matrigel embedded lung organoids can be used for TLO generation when they reach d42 of development. Media was removed from the transwell and 1 ml of 2 mg/ml dispase (Corning) was added to release lung organoid from the Matrigel for 30-45 minutes in normoxic incubator. The organoid was transferred to a 15 ml conical tube and washed with stop media (DMEM (Corning), 5% FBS (Atlanta Biologicals; Flowery Branch, Georgia), 1% Glutamax (ThermoFisher)) to neutralize Dispase, then centrifuged at […] for 5 minutes. The pellet was incubated with 1 ml of 0.05% Trypsin/EDTA in normoxic incubator for 10-12 minutes with occasional pipetting with a P1000 pipet tip. Single cell dissociation was verified using a bright field microscope. If a single cell suspension was not obtained after 12 minutes, cells were washed with stop media and incubated for additional 5 minutes with 0.05% Trypsin/EDTA. Cells were counted using a hemocytometer and 400 cells/μl of undiluted Matrigel were plated in a well of a 12-well non-tissue culture plate. […]

Take `NC(=O)c1ccc(-c2nc(-c3ccc4c(c3)OCO4)c(-c3ccccn3)[nH]2)cc1` [SB, SB431542]: the “expression of AT2 and AT1 markers” value with TLOs [1] was “further upregulation of not only AT2, but also of AT1 markers”.

In the case of tunicamycin, in the data set with HPS1−/− TLOs [2] (after 5 hrs tunicamycin challenge), the “expression of ER stress mediators (BIP, XBP1 splicing)” value is “significantly increased expression of BIP and of XBP1 splicing”. Also, in the data set on HPS1−/− TLOs [2] (one week after removal of tunicamycin (5 hour challenge)), the “expression of ER stress mediators (XBP1 splicing, CHOP, ATF4)” value is “maintained elevated splicing of XBP1 but entirely failed to upregulate CHOP and ATF4”. Further, the “expression of ER stress mediators” value with ABCA3−/− TLOs is given as “A similar response, though less pronounced”. In addition, the apoptosis result in the data set with HPS1−/− TLOs [3] was “increased apoptosis”. In addition, the “expression of ER stress mediators (XBP1, BIP, CHOP, ATF4)” value in the data set on WT (R2) TLO was “expression of BIP, CHOP and ATF4 were strikingly increased”.

Turning to `Cc1c[nH]c(-c2cnc(NCCNc3ccc(C#N)cn3)nc2-c2ccc(Cl)cc2Cl)n1` [CHIR, CHIR99021], in the data set on TLOs [4], the “effect of CHIR withdrawal on TLOs” value was “disintegration, proliferation arrest (FIG. 3b), apoptosis (FIG. 3c) and loss of AT2 markers”.

The values are drawn from patent US20250122479A1, “GENERATION OF LUNG ORGANOIDS FROM PLURIPOTENT STEM CELLS AND USE THEREOF” (THE TRUSTEES OF COLUMBIA UNIVERSITY IN THE CITY OF NEW YORK, priority 2022, published 2025).
